Test results taken from patent US8859572B2, “Sulfone substituted 2,3-dihydroimidazo [1,2-C] quinazoline derivatives useful for treating hyper-proliferative disorders and diseases with angiogenesis” (Bayer Intellectual Property GmbH, priority 2008, dated 2014).

Molecular target: T1, PI3Kβ (recombinant truncated form (ΔN1-108) of the human p110β subunit of PI3K) (Homo sapiens, UniProt P42338)
T1 construct: His6 (N); made in house; host or cells: Spodoptera frugiperda Sf9 insect cells
Assay: Solid-phase lipid kinase assay of PI3Kβ
Format: biochemical
Settings: 7.5 ng protein/well, final 10 μM ATP, 2 h at rt
Procedure: To assess inhibition of PI3Kα by compounds, the Maxisorp™ plates were coated with 50 μL/well of a solution containing 50 μg/ml PtdIns and 50 μg/ml PtdSer dissolved in chloroform:ethanol (3:7). The plates were subsequently air-dried by incubation for at least 2 h in a fume hood. The reaction was set up by mixing 25 μL/well of assay buffer 2×(100 mM MOPSO/NaOH, 0.2 M NaCl, pH 7.0, 8 mM MgCl2, 2 mg/mL BSA (fatty acid-free)), and 7.5 ng/well PI3Kα in the lipid pre-coated plate. Test compounds at different concentrations (0.0, 0.003, 0.01 0.03, 0.1, 0.3, 1.0, 3.0 and 10 μM) were added in 2% DMSO. The reaction was initiated by adding 20 μL/well of ATP mix (final 10 μM ATP; 0.05 μCi/well [γ^33P]ATP). After incubation at rt for 2 h, the reaction was terminated by adding 50 μl/well stop solution (50 mM EDTA, pH 8.0). The plate was then washed twice with Tris-buffered saline (TBS, pH 7.4). MicroScint PS™ (PACKARD) scintillation mix was added at 100 μL/well, and radioactivity was counted using a TopCount™ (PACKARD) scintillation counter.
The inhibition percent at each concentration of compound was calculated, and IC50 values were determined from the inhibition of curve.
A recombinant truncated form (ΔN1-108) of the human p110β subunit of PI3K with an N-terminal His6-Tag was expressed in S. frugiperda 9 insect cells. Recombinant human PI3Kγ (full length human PI3K p110γ fused with a His6-tag at the C-terminus expressed in S. frugiperda 9 insect cells) was obtained from ALEXIS BIOCHEMICALS (#201-055-0010; San Diego, Calif.).
Kinase assays using recombinant truncated p110β or the full length p110γ were performed in a similar manner as described in the determination of IC50 values of compounds in the kinase assay of PI3Kα except that these isoforms were assayed using 7.5 ng and 25.0 ng of protein/well, respectively.

T1 sequence (P42338 109-1070): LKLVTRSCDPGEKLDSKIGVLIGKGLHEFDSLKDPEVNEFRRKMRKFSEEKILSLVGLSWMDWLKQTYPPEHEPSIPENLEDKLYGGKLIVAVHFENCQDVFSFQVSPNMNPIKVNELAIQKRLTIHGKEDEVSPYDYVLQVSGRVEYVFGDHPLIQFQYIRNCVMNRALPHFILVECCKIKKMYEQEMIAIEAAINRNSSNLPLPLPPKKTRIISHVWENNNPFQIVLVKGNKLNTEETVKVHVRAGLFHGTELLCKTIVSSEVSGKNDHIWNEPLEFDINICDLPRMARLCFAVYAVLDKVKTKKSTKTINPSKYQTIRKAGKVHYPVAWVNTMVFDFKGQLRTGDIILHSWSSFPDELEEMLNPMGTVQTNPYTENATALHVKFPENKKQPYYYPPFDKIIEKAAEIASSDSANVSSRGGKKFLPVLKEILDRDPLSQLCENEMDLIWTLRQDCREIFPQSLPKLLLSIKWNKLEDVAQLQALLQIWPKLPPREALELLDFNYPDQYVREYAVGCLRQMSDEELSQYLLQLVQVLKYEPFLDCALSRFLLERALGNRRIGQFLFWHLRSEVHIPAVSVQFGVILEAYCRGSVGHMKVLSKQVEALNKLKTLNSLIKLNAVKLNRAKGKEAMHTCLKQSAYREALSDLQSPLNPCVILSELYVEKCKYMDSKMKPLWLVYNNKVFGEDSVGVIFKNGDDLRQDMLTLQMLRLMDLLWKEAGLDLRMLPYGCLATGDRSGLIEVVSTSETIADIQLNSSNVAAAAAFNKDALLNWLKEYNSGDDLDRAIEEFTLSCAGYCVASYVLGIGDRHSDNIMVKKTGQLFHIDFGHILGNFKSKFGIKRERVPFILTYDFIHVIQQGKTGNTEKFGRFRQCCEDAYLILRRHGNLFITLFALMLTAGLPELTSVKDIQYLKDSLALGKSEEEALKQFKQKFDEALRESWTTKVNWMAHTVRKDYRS

IC50 [nM] | SMILES
< 100 | COc1c(OCCCS(=O)(=O)N2CCN(C)CC2)ccc2c1N=C(NC(=O)c1cccnc1)N1CCN=C21 [Example 1, N-(7-methoxy-8-{3-[(4-methylpiperazin-1-yl)sulfonyl]propoxy}-2,3-dihydroimidazo[1,2-c]quinazolin-5-yl)nicotinamide]
< 100 | COc1c(OCCCS(=O)(=O)N2CCOCC2)ccc2c1N=C(NC(=O)c1cccnc1)N1CCN=C21 [Example 3, N-{7-methoxy-8-[3-(morpholin-4-ylsulfonyl)propoxy]-2,3-dihydroimidazo[1,2-c]quinazolin-5-yl}nicotinamide]
< 100 | COc1c(OCCCN2CCS(=O)(=O)CC2)ccc2c1N=C(NC(=O)c1cccnc1)N1CCN=C21 [Example 4, N-{8-[3-(1,1-dioxidothiomorpholin-4-yl)propoxy]-7-methoxy-2,3-dihydroimidazo[1,2-c]quinazolin-5-yl}nicotinamide]
100 to 3000 | O=C(NC1=Nc2c(OCCCS(=O)(=O)N3CCOCC3)cccc2C2=NCCN12)c1cccnc1 [Example 7, N-{7-[3-(morpholin-4-ylsulfonyl)propoxy]-2,3-dihydroimidazo[1,2-c]quinazolin-5-yl}nicotinamide]
100 to 3000 | CN1CCN(S(=O)(=O)CCCOc2cccc3c2N=C(NC(=O)c2cccnc2)N2CCN=C32)CC1 [Example 8, N-(7-{3-[(4-methylpiperazin-1-yl)sulfonyl]propoxy}-2,3-dihydroimidazo[1,2-c]quinazolin-5-yl)nicotinamide]
100 to 3000 | O=C(NC1=Nc2c(OCCCN3CCS(=O)(=O)CC3)cccc2C2=NCCN12)c1cccnc1 [Example 9, N-{7-[3-(1,1-dioxidothiomorpholin-4-yl)propoxy]-2,3 dihydroimidazo[1,2-c]quinazolin-5-yl}nicotinamide]
< 100 | CN(C)S(=O)(=O)CCCOc1cccc2c1N=C(NC(=O)c1cccnc1)N1CCN=C21 [Example 11, N-(7-{3-[(dimethylamino)sulfonyl]propoxy}-2,3-dihydroimidazo[1,2-c]quinazolin-5-yl)nicotinamide]
< 100 | O=C(NC1=Nc2c(ccc(OCCCN3CCOCC3)c2OCCCS(=O)(=O)N2CCOCC2)C2=NCCN12)c1cccnc1 [Example 12]
< 100 | CN1CCN(S(=O)(=O)CCCOc2c(OCCCN3CCOCC3)ccc3c2N=C(NC(=O)c2cccnc2)N2CCN=C32)CC1 [Example 13, N-[7-{3-[(4-methylpiperazin-1-yl)sulfonyl]propoxy}-8-(3-morpholin-4-ylpropoxy)-2,3-dihydroimidazo[1,2-c]quinazolin-5-yl]nicotinamide]
100 to 3000 | O=C(NC1=Nc2cc(OCCCS(=O)(=O)N3CCOCC3)ccc2C2=NCCN12)c1cccnc1 [Example 24, N-{8-[3-(morpholin-4-ylsulfonyl)propoxy]-2,3-dihydroimidazo[1,2-c]quinazolin-5-yl}nicotinamide]
100 to 3000 | CN1CCN(S(=O)(=O)CCCOc2ccc3c(c2)N=C(NC(=O)c2cccnc2)N2CCN=C32)CC1 [Example 25, N-(8-{3-[(4-methylpiperazin-1-yl)sulfonyl]propoxy}-2,3-dihydroimidazo[1,2-c]quinazolin-5-yl)nicotinamide]
100 to 3000 | CS(=O)(=O)c1ccc(COc2ccc3c(c2)N=C(NC(=O)c2cccnc2)N2CCN=C32)cc1 [Example 26, N-(8-{[4-(methylsulfonyl)benzyl]oxy}-2,3-dihydroimidazo[1,2-c]quinazolin-5-yl)nicotinamide]
100 to 3000 | O=C(NC1=Nc2cc(OCCCS(=O)(=O)N3CCOCC3)ccc2C2=NCCN12)c1cncnc1 [Example 28, N-{8-[3-(morpholin-4-ylsulfonyl)propoxy]-2,3-dihydroimidazo[1,2-c]quinazolin-5-yl}pyrimidine-5-carboxamide]
< 100 | Nc1ncc(C(=O)NC2=Nc3cc(OCCCS(=O)(=O)N4CCOCC4)ccc3C3=NCCN23)cn1 [Example 29, 2-amino-N-{8-[3-(morpholin-4-ylsulfonyl)propoxy]-2,3-dihydroimidazo[1,2-c]quinazolin-5-yl}pyrimidine-5-carboxamide]

Further lines, the molecule ahead of its results:

SMILES | IC50 [nM]
COc1c(OCc2ccc(S(C)(=O)=O)cc2)ccc2c1N=C(NC(=O)c1cccnc1)N1CCN=C21 [Example 2, N-(7-methoxy-8-{[4-(methylsulfonyl)benzyl]oxy}-2,3-dihydroimidazo[1,2-c]quinazolin-5-yl)nicotinamide] | 100 to 3000
COc1c(OCCCS(=O)(=O)N(C)C)ccc2c1N=C(NC(=O)c1cccnc1)N1CCN=C21 [Example 5, N-(8-{3-[(dimethylamino)sulfonyl]propoxy}-7-methoxy-2,3-dihydroimidazo[1,2-c]quinazolin-5-yl)nicotinamide] | < 100
CCN(CC)S(=O)(=O)CCCOc1ccc2c(c1OC)N=C(NC(=O)c1cccnc1)N1CCN=C21 [Example 6, N-(8-{3-[(diethylamino)sulfonyl]propoxy}-7-methoxy-2,3-dihydroimidazo[1,2-c]quinazolin-5-yl)nicotinamide] | < 100
CS(=O)(=O)c1ccc(COc2cccc3c2N=C(NC(=O)c2cccnc2)N2CCN=C32)cc1 [Example 10, N-(7-{[4-(methylsulfonyl)benzyl]oxy}-2,3-dihydroimidazo[1,2-c]quinazolin-5-yl)nicotinamide] | < 100
CCN(CC)S(=O)(=O)CCCOc1c(OCCCN2CCOCC2)ccc2c1N=C(NC(=O)c1cccnc1)N1CCN=C21 [Example 14, N-[7-{3-[(Diethylamino)sulfonyl]propoxy}-8-(3-morpholin-4-ylpropoxy)-2,3-dihydroimidazo[1,2-c]quinazolin-5-yl]nicotinamide] | < 100
CN(C)S(=O)(=O)CCCOc1c(OCCCN2CCOCC2)ccc2c1N=C(NC(=O)c1cccnc1)N1CCN=C21 [Example 15, N-[7-{3-[(dimethylamino)sulfonyl]propoxy}-8-(3-morpholin-4-ylpropoxy)-2,3-dihydroimidazo[1,2-c]quinazolin-5-yl]nicotinamide] | < 100
COc1c(OCc2ccc(S(C)(=O)=O)cc2)ccc2c1N=C(NC(=O)c1cnc(N)nc1)N1CCN=C21 [Example 16, 2-amino-N-(7-methoxy-8-{[4-(methylsulfonyl)benzyl]oxy}-2,3-dihydroimidazo[1,2-c]quinazolin-5-yl)pyrimidine-5-carboxamide] | < 100
COc1c(OCCCS(=O)(=O)N(C)C)ccc2c1N=C(NC(=O)c1cnc(N)nc1)N1CCN=C21 [Example 17, 2-amino-N-(8-{3-[(dimethylamino)sulfonyl]propoxy}-7-methoxy-2,3-dihydroimidazo[1,2-c]quinazolin-5-yl)pyrimidine-5-carboxamide] | < 100
COc1c(OCCCS(=O)(=O)N(C)C)ccc2c1N=C(NC(=O)c1ccc(N)nc1)N1CCN=C21 [Example 18, 6-amino-N-(8-{3-[(dimethylamino)sulfonyl]propoxy}-7-methoxy-2,3-dihydroimidazo[1,2-c]quinazolin-5-yl)nicotinamide] | < 100
COc1c(OCCCN2CCS(=O)(=O)CC2)ccc2c1N=C(NC(=O)c1ccc(N)nc1)N1CCN=C21 [Example 19, 6-amino-N-{8-[3-(1,1-dioxidothiomorpholin-4-yl)propoxy]-7-methoxy-2,3-dihydroimidazo[1,2-c]quinazolin-5-yl}nicotinamide] | < 100
COc1c(OCc2ccc(S(C)(=O)=O)cc2)ccc2c1N=C(NC(=O)c1ccc(N)nc1)N1CCN=C21 [Example 20, 6-amino-N-(7-methoxy-8-{[4-(methylsulfonyl)benzyl]oxy}-2,3-dihydroimidazo[1,2-c]quinazolin-5-yl)nicotinamide] | < 100
COc1c(OCCCN2CCS(=O)(=O)CC2)ccc2c1N=C(NC(=O)c1cnc(N)nc1)N1CCN=C21 [Example 21, 2-amino-N-{8-[3-(1,1-dioxidothiomorpholin-4-yl)propoxy]-7-methoxy-2,3-dihydroimidazo[1,2-c]quinazolin-5-yl}pyrimidine-5-carboxamide] | < 100
COc1c(OCCCS(=O)(=O)N2CCOCC2)ccc2c1N=C(NC(=O)c1ccc(N)nc1)N1CCN=C21 [Example 22, 6-amino-N-{7-methoxy-8-[3-(morpholin-4-ylsulfonyl)propoxy]-2,3-dihydroimidazo[1,2-c]quinazolin-5-yl}nicotinamide] | < 100
COc1c(OCCCS(=O)(=O)N2CCOCC2)ccc2c1N=C(NC(=O)c1cnc(N)nc1)N1CCN=C21 [Example 23, 2-amino-N-{7-methoxy-8-[3-(morpholin-4-ylsulfonyl)propoxy]-2,3-dihydroimidazo[1,2-c]quinazolin-5-yl}pyrimidine-5-carboxamide] | < 100
Cc1nc(C)c(C(=O)NC2=Nc3cc(OCc4ccc(S(C)(=O)=O)cc4)ccc3C3=NCCN23)s1 [Example 27, 2,4-dimethyl-N-(8-{[4-(methylsulfonyl)benzyl]oxy}-2,3-dihydroimidazo[1,2-c]quinazolin-5-yl)-1,3-thiazole-5-carboxamide] | 100 to 3000
